Test [1] relates to HvGR (Host Versus Graft Reaction) in Rats. The test is described as follows: Inhibitory activities against HvGR in rats, combination with immunosuppressants (Test Example 3). It counts as in vivo, Lewis rats. The following applies: oral 5 ml/kg once daily for 4 successive days; suspensions: cyclosporin A 0.08 mg/5 ml, tacrolimus 0.08 mg/5 ml, Compound A 0.008 mg/5 ml; popliteal lymph node weight. The procedure:
Determination of Inhibitory Activities of Compounds against HvGR (Host Versus Graft Reaction) in Rats (1) Two strains of rats (Lewis rats (male, 6 weeks of age, Charles River Japan Inc.) and […] (male, 7 weeks of age, Japan SLC Inc.) were used. Five rats/group were used. […] Spleen cells were isolated from the spleens of […] or Lewis rats and floated in RPMI1640 medium (Life Technologies Inc.) at a concentration of 1×10^8 cells/ml. 0.1 ml of the medium containing the free-floating spleen cells of […] or 0.1 ml of the medium containing the free-floating spleen cells of Lewis rats were intracutaneously injected into the bilateral foot-pads of hindlimbs of Lewis rats. (3) Administration of Compounds […] In both the “same strain group” (Lewis rats treated with spleen cells of Lewis rats but not with the compounds) and “control group” (Lewis rats treated with the spleen cells of […] but not with the compounds), 0.5% tragacanth solution was orally administered. […] The inhibitory activities of the compounds were calculated from the “HvGR-induced changes in the popliteal lymph node weights” of individual rats in drug-treated group versus the average “HvGR-induced changes in the popliteal lymph node weights” in the control group.

Test [2] deals with Host Versus Graft Reaction in Rats. The test is described as follows: Inhibitory activities against host versus graft reaction (HvGR) in rats (Test Example 1). Particulars: oral, once daily for 4 successive days; HvGR-induced change in popliteal lymph node weight; Lewis rats injected with WKAH/Hkm spleen cells. The test is classed as in vivo. The procedure: Determination of Inhibitory Activities of Compounds against Host Versus Graft Reaction in Rats
(1) Two strains of rats [Lewis rats (male, 6 weeks of age, Charles River Japan Inc.) and WKAH/Hkm rats (male, 7 weeks of age, Japan SLC Inc.) were used. Five rats/group were used.
Spleen cells were isolated from the spleens of WKAH/Hkm and Lewis rats and floated in RPMI1640 medium (Life Technologies Inc.) at a concentration of 1×10^8 cells/ml. 0.1 ml of the medium containing the free-floating spleen cells of WKAH/Hkm rats or Lewis rats (1×10^7 of the spleen cells) was then intracutaneously injected into the bilateral foot-pads of hindlimbs of Lewis rats.
(3) Administration of the Compounds
Compounds were suspended in 0.5% tragacanth solution. The suspended compounds were orally administered to rats in the drug-treated group (Lewis rats injected with spleen cells of WKAH/Hkm rats and treated with the compound) at a volume of 5 ml/kg once daily for 4 successive days starting on the day of spleen cell injection. The tragacanth solution (0.5%) was orally administered, instead of the compound-suspended solution, to rats in the “same strain group” (Lewis rats injected with spleen cells of Lewis rats) and the control group (Lewis rats injected with spleen cells of WKAH/Hkm rats and not treated with the compound).
(4) Determination of Inhibitory Activities of Compounds against HvGR
Average weight of the popliteal lymph nodes of the same strain rats was subtracted from individual weights of the popliteal lymph nodes of individual rats (“HvGR-induced changes in weight of the popliteal lymph nodes”). The inhibitory activities of compounds were calculated from the “HvGR-induced changes in weights of the popliteal lymph nodes” of individual rats in the drug-treated group versus the average “HvGR-induced changes in weights of the popliteal lymph nodes” in the control group. The inhibitory activities of compounds were expressed as ID50 values (mg/kg) as calculated by least squares method based on the doses of compounds administered and inhibitory activities at these doses.

For test [3], the system named is Adjuvant-Induced Arthritis. The experiment in a line: Inhibitory activities against adjuvant-induced arthritis (Test Example 2). It counts as in vivo, rats (usually Lewis rats). Particulars: oral, once daily for 21 successive days; foot swelling volume one day after final administration. The procedure:
Determination of Inhibitory Activities of Compounds against Adjuvant-Induced Arthritis
(1) Preparation of Adjuvant
Adjuvant was prepared by suspension of killed Mycobacterium butyricum in mineral oil at a concentration of 2 mg/ml, followed by application of ultrasonic waves.
(2) Preparation of Test Compound
Test compounds were suspended or dissolved in 0.5% tragacanth solution.
(3) Induction of Adjuvant Arthritis
0.05 ml of adjuvant solution prepared as described in (1) was intracutaneously injected into the right foot-pad of rats (usually Lewis rats). Five rats/group were usually used. Adjuvant was not injected in one group of rats (normal group).
(4) Administration of Compound
Compounds prepared as described in (2) were orally administered to rats at a volume of 5 ml/kg once daily for 21 successive days. 0.5% tragacanth solution was similarly administered to rats in one group injected adjuvant (control group) and a group not injected adjuvant.
(5) Calculation of Inhibitory Activities of Compounds against Adjuvant Arthritis
One day after the final drug administration, the foot volume of each rat was measured by an apparatus for determination of the volume. The average value in normal rats was subtracted from the individual values in the drug-treated and control groups. The difference was expressed as the swelling volume. Inhibitory rate of the compound was calculated from the ratio of the individual swelling volume of the rat treated with the compound to the average swelling volume in the control group.
Inhibitory activities of compounds were expressed as ID50 values (mg/kg) calculated by least squares method based on the doses of the compound and their inhibitory ratios.

In test [4] the test system is Mice GvHD (Graft Versus Host Disease). The test is described as follows: Inhibitory activities against mice GvHD (Test Example 4). It counts as in vivo, BDF1 mice. The following applies: oral 10 ml/kg once daily for 10 successive days; suspensions: cyclosporin A 0.1 mg/10 ml, tacrolimus 0.2 mg/10 ml, Compound B 0.01 mg/10 ml; spleen weight compensated for body weight. The procedure: Determination of Inhibitory Activities of Compounds against Mice GvHD (Graft Versus Host Disease) (1) Two strains of mice. [BDF1 mice (male, 6 weeks of age, Charles River Japan Inc.) and C57BL/6 mice (male, 7 weeks of age, Charles River Japan Inc.)] were used. Five mice/group (hosts) were used. (2) Induction of GvHD Spleen cells were isolated from the spleens of C57BL/6 mice or BDF1 mice and floated in RPMI1640 medium (Life Technologies Inc.) at a concentration of 2×10^7 cells/ml. 0.5 ml of the medium containing the free-floating spleen cells of C57BL/6 mice) was intravenously injected into the tail vein of BDF1 mice (GvHD induction group) and the same volume of the medium containing free-floating spleen cells of BDF1 mice was intravenously injected into the tail vein of BDF1 mice (the “same strain group”). (3) Administration of Compounds […] Body weight was determined and spleens were weighed, and “spleen weight compensated for the body weight following injection of GvHD” was calculated by dividing the spleen weight by the body weight. […] The inhibitory activities of compounds were calculated from the ratios of individual “spleen weight compensated for body weight following injection of GvHD” to the average “spleen weight compensated for body weight following injection of GvHD” in the control group.

Test [5] deals with Rejection Response against Skin Transplantation of Mice. The test is described as follows: Inhibitory activities against rejection response against skin transplantation of mice (Test Example 5). The test is classed as in vivo. Particulars: oral 10 ml/kg once daily for 14 successive days from transplantation; suspensions: cyclosporin A 30 mg/10 ml, tacrolimus 3 mg/10 ml, Compound B 0.1 mg/10 ml; C57BL/6N skin on BALB/cAnN mice.
From the text: (1) Two strains of mice [C57BL/6N mice (female, 5 weeks of age, Charles River Japan Inc.) and BALB/cAnN mice (female, 5 weeks of age, Charles River Japan Inc.)] were used. Ten mice/group (transplanted individuals) were used.
C57BL/6N mice were sacrificed by cervical dislocation and their skins removed. The skins were cut to 8-mm diameter sizes by biopsy punch (MK706, 8 mm, Kai Industries Co., Ltd.). Next, 8 mm diameter sections of the back skins of BALB/cAnN mice anaesthetized with Avertin were removed by biopsy punch. The skin was cut along the edge of the damaged area by fine ophthalmic scissors. The previously cut skins of C57BL/6N mice were transplanted to the removed areas of the skin in BALB/cAnN mice. The transplanted areas were fixed with Aron Alpha (Sankyo Co., Ltd.). […]
On the 6th day after transplantation (the day of transplantation was defined as day 0), the Coban, SYLKYTEX, sterilized gauze, and Sofratulle were gently removed paying attention not to damage the skin by a pair of scissors. From the next day to 20 days after transplantation, it was determined whether rejection responses occurred in the transplanted skin. This determination was carried out blind, and the median day when the rejection response occurred was calculated.

`CC(N)(CO)CCc1ccc(C(=O)CCCCc2ccccc2)s1.O=C(O)/C=C\C(=O)O` (stereo not shown) [Compound A, 2-amino-2-methyl-4-[5-(5-phenylpentanoyl]thiophen-2-yl]butan-1-ol maleate]: the “HvGR Inhibitory Rate (%)” value in test [1] turned out to be 16.0%.

With `C[C@](N)(CO)CCc1ccc(C#CCCCC2CCCCC2)o1.O=C(O)C(=O)O` [Example 2, (2R)-2-Amino-2-methyl-4-[5-(5-cyclohexylpent-1-ynyl)furan-2-yl]butan-1-ol oxalate], the “HvGR ID50 values” in test [2] worked out at 0.714 mg/kg. Also, the “ID50 values” in test [3] is given as 0.0899 mg/kg.

Regarding `C[C@](N)(CO)CCc1ccc(C#CCCOC2CCCCC2)o1.O=C(O)C(=O)O` [Example 3, (2R)-2-Amino-2-methyl-4-[5-(4-cyclohexyloxybut-1-ynyl)furan-2-yl]butan-1-ol oxalate], the “HvGR ID50 values” in test [2] was 0.116 mg/kg. Also, the “ID50 values” in test [3] came out at 0.0774 mg/kg.

For the molecule `Cn1c(C#CCCCc2ccccc2)ccc1CC[C@@](C)(N)CO.O=C(O)C(=O)O` [Example 9, (2R)-2-Amino-2-methyl-4-[1-methyl-5-(5-phenylpent-1-ynyl)pyrrol-2-yl]butan-1-ol oxalate], in test [2], the “HvGR ID50 values” came to 0.120 mg/kg.

For the molecule `Cn1c(C#CCCOC2CCCCC2)ccc1CC[C@@](C)(N)CO.Cn1c(C#CCCOC2CCCCC2)ccc1CC[C@@](C)(N)CO.O=C(O)C(=O)O` [Example 10, (2R)-2-Amino-2-methyl-4-[1-methyl-5-(4-cyclohexyloxybut-1-ynyl)pyrrol-2-yl]butan-1-ol ½-oxalate], the “HvGR ID50 values” in test [2] amounted to 0.276 mg/kg.

Regarding `C[C@](N)(CO)CCc1ccc(C#CCCCc2cccc(C(F)(F)F)c2)o1.O=C(O)C(=O)O` [Example 15, (2R)-2-Amino-2-methyl-4-{5-[5-(3-trifluoromethylphenyl)pent-1-ynyl]furan-2-yl}butan-1-ol oxalate], the “HvGR ID50 values” in test [2] turned out to be 0.304 mg/kg.

As for `C[C@](N)(CO)CCc1ccc(C#CCCCC2CCCCC2)o1.Cl` [Example 19, (2R)-2-Amino-2-methyl-4-[5-(5-cyclohexylpent-1-ynyl)furan-2-yl]butan-1-ol hydrochloride], in test [2], the “HvGR ID50 values” came out at 0.097 mg/kg. Further, the “ID50 values” in test [3] is given as 0.108 mg/kg.

Regarding `C[C@](N)(CO)CCc1ccc(C#CCCOC2CCCCC2)o1.Cl` [Example 20, (2R)-2-Amino-2-methyl-4-[5-(4-cyclohexyloxybut-1-ynyl)furan-2-yl]butan-1-ol hydrochloride], the “HvGR ID50 values” in test [2] amounted to 0.082 mg/kg. For the same molecule, the “ID50 values” in test [3] was determined as 0.102 mg/kg.

On to `Cl.Cn1c(CC[C@@](C)(N)CO)ccc1C(=O)CCCCc1ccccc1` [Example 33, (2R)-2-Amino-2-methyl-4-[1-methyl-5-(5-phenylpentanoyl)pyrrol-2-yl]butan-1-ol hydrochloride], for which, in test [2], the “HvGR ID50 values” came to 0.013 mg/kg. For the same molecule, in test [4], the “GvHD Inhibitory Rate (%)” value is given as −2.9%. In addition, the “Median Day of Rejection Response” value in test [5] amounted to 15.0 days. In addition, the “ID50 values” in test [3] was 0.0941 mg/kg.

Consider `C=CCC1C=C(C)CC(C)CC(OC)C2OC(O)(C(=O)C(=O)N3CCCCC3C(=O)OC(C(C)=CC3CCC(O)C(OC)C3)C(C)C(O)CC1=O)C(C)CC2OC` (stereo not shown) [Tacrolimus, 17-allyl-1,14-dihydroxy-12-[2-(4-hydroxy-3-methoxycyclohexyl)-1-methylvinyl]-23,25-dimethoxy-13,19,21,27-tetramethyl-11,28-dioxa-4-azatricyclo[22.3.1.0^4,9]octacos-18-ene-2,3,10,16-tetrone, reference compound], for which the “GvHD Inhibitory Rate (%)” value in test [4] stood at 7.6%. Besides, in test [5], the “Median Day of Rejection Response” value was found to be 11.0 days. The “HvGR Inhibitory Rate (%)” value in test [1] amounted to 25.8%.

(Values after patent US7199150B2, “Amino alcohol compounds” (Sankyo Company, Limited, priority 2002, dated 2007).)
